{
  "source": "paper PMC4460047",
  "about": "(PLoS ONE, 2015)",
  "key": {"[1]": {"assay": "Stability in 20% w/v rat liver homogenate", "type": "in vitro ADME", "protocol": "(§1) The chemical and metabolic stability of PEA and all prodrugs were studied by incubating each compound (5 μL of a […] solution in DMSO, or DMSO as control) with 495 μL of 10 mM phosphate buffered saline pH 7.4 for chemical stability, 80% v/v rat plasma or 20% w/v rat liver homogenate prepared accordingly to previously described procedures for metabolic stability, reaching a final concentration of 50 nm for the test compound.\n(§2) Rat plasma and liver samples were pre-incubated at 37°C for 10 min before adding the compounds. After incubation for different time periods (0, 15, 30, 60, 120, 240 and 360 min), samples were deproteinized by adding 100 μL of acetonitrile with 75 nmol L^-1 IS (PEA-d4). The samples were centrifuged (14 000 g, 10 min, 4°C), and the supernatants were analyzed by HPLC–ESI–MS/MS. For each tested compound, a multiple reaction monitoring (MRM) ESI–MS/MS method was set up in order to monitor the relative concentration of compound and released PEA at the different incubation times, compared to the time t = 0, in rat plasma and liver homogenate."}, "[2]": {"assay": "Plasma levels after oral administration to Wistar rats", "type": "in vivo, rat", "settings": "for AUC(0-t): Wistar, administered compound, mean±SEM, read-out: AUC0- 480 (converted); for AUC(0-t) / Cmax of administered compound in rat plasma / Time of Cmax of administered compound in rat plasma: p.o.; for Cmax of administered compound in rat plasma / Time of Cmax of administered compound in rat plasma: PEA 100 mg kg-1, 20, 28 145 mg kg-1", "protocol": "Twenty-seven male Wistar rats (Charles River Laboratories, Italy), 150–250 g in weight, were used in the study. Number of animals was calculated by G-power a priori analysis (α = 0.05 and β = 0.05). Animals were housed in group in policarbonate cages (Tecniplast, Italy) in a conventional facility with controlled temperature 22±1°C, a relative humidity of 55±5%, and a 12 h light/dark cycle (6:00 am to 6:00 pm). The rats were provided standard pellet diet (4RF21 GLP Mucedola, Italy) and water ad libitum throughout the study. The experiments were started only after acclimatization of animals to the laboratory conditions. Before the experiments, rats were fasted for 18 h, with free access to drinking water. Animals were randomized in three experimental groups (nine animals for each group) receiving respectively L-Val-PEA (20), D-Val-PEA (28) and PEA (1).\nThe day of the experiments substances were turned into a corn oil suspension, after ultrasound and vortexing and they were administered to rats between 8.00 and 10.00 am by gastric gavage at the equimolar doses of 145 mg kg^-1 for L- and D-Val-PEA (20, 28) and 100 mg kg^-1 of PEA (1). Blood samples were collected via sub-tongue puncture from each anaesthetized rat (2% isofluran in air) to minimize any suffering. Blood samples of 0.2 mL were collected before treatment and at 15, 30, 60, 120, 240, 360 and 480 min post-dosing into EDTA-treated tubes (Sarstedt, Germany), immediately centrifuged (5000 rpm, 10 min, 4°C; refrigerated microcentrifuge Z 216 MK, Hermle LaborTechnik). Resulting plasma was immediately processed by protein precipitation with ice-cold acetonitrile containing the IS 75 nmol L^-1 (PEA-d4) and analyzed as previously described. AUC values were calculated employing the software add-ons of Microsoft Excel."}, "[3]": {"assay": "Stability and PEA release in 80% v/v rat plasma", "type": "in vitro ADME", "protocol": "as §1, §2\nCmax and tmax in rat plasma were read from the raw data as the coordinates of the highest concentration observed. A Thermo TSQ Quantum triple-quadrupole mass spectrometer (Thermo Italia, Milan, Italy) with heated electrospray ionization (H-ESI) ion source was used for mass detection and analysis. Mass spectrometric analyses were done in positive ion mode. H-ESI interface parameters were set as follows: probe middle (D) position; capillary temperature 270°C; spray voltage 3.0 kV. Nitrogen was used as nebulizing gas at the following pressure: sheath gas 35 psi; auxiliary gas 15 arbitrary units (a.u.). Argon was used as the collision gas at a pressure of approximately 1.5 mtorr (1 torr = 133.3 Pa). For quantitative analysis, the following parent ion → product ions transitions were selected: PEA (1): m/z 300.2 → m/z 62.3 (tube lens 60 V; collision energy 19 eV); PEA-d4 (Internal Standard): m/z 304.2 → m/z 66.3 + m/z 287.2 (tube lens 72 V; collision energy 15, 12 eV). MRM transitions, tube lens voltages and collision energies for compounds 3–5, 7–9, 19–24, 26–31, and 33 are reported in the S1 File. […] The coefficients of correlation (r^2) were >0.99 for all curves. The LOQ was 1 nmol mL^−1 for all analytes. Extraction efficiency was determined by comparing the peak area ratio of spiked samples at three concentration levels (low, intermediate, and high) to those of extracted charcoal treated blank plasma spiked with the corresponding concentrations. The mean extraction recovery ranged from 109% to 91% for all compounds. The specificity of the assay was evaluated by comparison of HPLC–ESI–MS/MS chromatograms of the analytes at the LOQ to those of charcoal treated blank plasma samples in triplicate."}, "[4]": {"assay": "Chemical stability in phosphate buffered saline pH 7.4", "type": "physicochemical", "settings": "percent remaining after 6 h of incubation at 37°C in PBS buffer pH 7.4", "protocol": "as §1, §2"}, "[5]": {"settings": "Beagle dogs, oral 30 mg kg-1; cited from earlier work"}, "[6]": {"test_system": "amidase activity in rat liver homogenate", "type": "biochemical", "description": "Fig 8 Role of amidase activity on compound degradation in rat liver homogenate."}, "liver FAAH": {"test_system": "liver FAAH", "design": "method as in PMID 17217969", "settings": "cited from earlier work"}, "[7]": {"settings": "after addition of 25 pmol of PEA, 80% v/v rat plasma"}},
  "data": [
    {"smiles": "CCCCCCCCCCCCCCCC(=O)NCCOC(=O)[C@H](N)C(C)C.Cl", "note": "[compound 28, 2-(Palmitoylamino)ethyl D-valinate hydrochloride]", "values": [
      {"measurement": "remaining at 2 h, 50 nM", "setting": "[1]; rat, 20% w/v rat liver homogenate, 37°C, 2 h, read-out: Percent remaining after 2 h incubation in rat liver homogenate", "value": "67 ± 9", "unit": "%"},
      {"measurement": "AUC(0-t)", "setting": "[2]; male, rat, plasma, po, n = 9", "value": 231, "unit": "ng·h/mL"},
      {"measurement": "concentration at 15 min", "setting": "[2]; male, rat, plasma, po, p.o. 145 mg kg-1, Wistar rats, mean ± SEM, n = 9, read-out: Prodrug Conc in plasma, 15 min", "value": 907, "unit": "nM"},
      {"measurement": "concentration at 30 min", "setting": "[2]; male, rat, plasma, po, p.o. 145 mg kg-1, Wistar rats, mean ± SEM, n = 9, read-out: Prodrug Conc in plasma, 30 min", "value": 280, "unit": "nM"},
      {"measurement": "concentration at 60 min", "setting": "[2]; male, rat, plasma, po, p.o. 145 mg kg-1, Wistar rats, mean ± SEM, n = 9, read-out: Prodrug Conc in plasma, 60 min", "value": 65.9, "unit": "nM"},
      {"measurement": "concentration at 120 min", "setting": "[2]; male, rat, plasma, po, p.o. 145 mg kg-1, Wistar rats, mean ± SEM, n = 9, read-out: Prodrug Conc in plasma, 120 min", "value": 56.4, "unit": "nM"},
      {"measurement": "concentration at 240 min", "setting": "[2]; male, rat, plasma, po, p.o. 145 mg kg-1, Wistar rats, mean ± SEM, n = 9, read-out: Prodrug Conc in plasma, 240 min", "value": 39.9, "unit": "nM"},
      {"measurement": "concentration at 360 min", "setting": "[2]; male, rat, plasma, po, p.o. 145 mg kg-1, Wistar rats, mean ± SEM, n = 9, read-out: Prodrug Conc in plasma, 360 min", "value": 11.4, "unit": "nM"},
      {"measurement": "concentration at 480 min", "setting": "[2]; male, rat, plasma, po, p.o. 145 mg kg-1, Wistar rats, mean ± SEM, n = 9, read-out: Prodrug Conc in plasma, 480 min", "value": 10.1, "unit": "nM"},
      {"measurement": "Cmax of administered compound in rat plasma", "setting": "[2]", "value": 907, "unit": "nm"},
      {"measurement": "Time of Cmax of administered compound in rat plasma", "setting": "[2]", "value": 15, "unit": "min"},
      {"measurement": "Rat plasma half-life relative to L-Val-PEA (20)", "setting": "[3]; rat plasma", "value": "over 6 fold"},
      {"measurement": "half-life at 50 nM", "setting": "[3]; rat, 80% v/v rat plasma, pH 7.4, 80% v/v rat plasma, 37°C, 50 nm compound, read-out: Rat Plasma Compd t 1/2", "value": "2.88 ± 0.0667", "unit": "h"},
      {"measurement": "%Compd at 6 h, pH 7.4", "setting": "[4]", "value": "87 ± 2", "unit": "%"}
    ]},
    {"smiles": "CCCCCCCCCCCCCCCC(=O)NCCO", "note": "[compound 1, Palmitoylethanolamide, reference compound]", "values": [
      {"measurement": "PEA concentration in rat liver homogenate after 120 min", "setting": "[1]; no detectable basal PEA levels", "value": "4.0 ± 1.2", "unit": "nM"},
      {"measurement": "half-life at 50 nM", "setting": "[1]; rat, 20% w/v rat liver homogenate, rat liver homogenate, 37°C, read-out: Rat Liver Compd t 1/2", "value": "~0.417", "unit": "h"},
      {"measurement": "AUC(0-t)", "setting": "[2]; male, rat, plasma, po, n = 9", "value": 109, "unit": "ng·h/mL"},
      {"measurement": "Increase of PEA basal plasma values at Cmax", "setting": "[2]; p.o. PEA 100 mg kg-1, 15 min", "value": 20, "unit": "fold"},
      {"measurement": "Cmax of administered compound in rat plasma", "setting": "[2]", "value": "420 ± 132", "unit": "nm"},
      {"measurement": "Time of Cmax of administered compound in rat plasma", "setting": "[2]", "value": 15, "unit": "min"},
      {"measurement": "Increase in basal plasma levels at Cmax", "setting": "[5]", "value": "five-fold increase"},
      {"measurement": "Time of maximal plasma concentration (Cmax)", "setting": "[5]", "value": "1 to 2", "unit": "h"},
      {"measurement": "PEA concentration in rat plasma after 1 h", "setting": "[3]; [7]", "value": "56.2 ± 4.3", "unit": "nM"},
      {"measurement": "PEA concentration in rat plasma after 6 h", "setting": "[3]; [7]", "value": "44.0 ± 3.2", "unit": "nM"},
      {"measurement": "PEA concentration in rat plasma at starting point", "setting": "[3]; [7]", "value": "71.9 ± 2.1", "unit": "nM"},
      {"measurement": "remaining at 6 h, 50 nM", "setting": "[3]; pH 7.4, 80% v/v rat plasma, 37°C, 6 h, read-out: Percent remaining after 6 h incubation in rat plasma", "value": "70 ± 2", "unit": "%"},
      {"measurement": "%Compd at 6 h, pH 7.4", "setting": "[4]", "value": "95 ± 1", "unit": "%"},
      {"measurement": "%Compd at 6 h, pH 7.4", "setting": "[4]; listed as PEA", "value": 95, "unit": "%"}
    ]},
    {"smiles": "NC(=O)c1cccc(-c2cccc(OC(=O)NC3CCCCC3)c2)c1", "note": "[URB597, cyclohexylcarbamic acid 3'-carbamoylbiphenyl-3-yl ester]", "values": [
      {"measurement": "Effect on PEA hydrolysis", "setting": "[6]; URB597 10 μm pre-incubation", "value": "complete inhibition of PEA hydrolysis"},
      {"measurement": "Effect on conversion of 20 into PEA", "setting": "[6]; URB597 10 μm pre-incubation", "value": "quantitative conversion of 20 into PEA"},
      {"measurement": "Effect on PEA concentrations vs control incubations of PEA and 20", "setting": "[6]; URB597 100 nm, 10 min pretreatment, p<0.05", "value": "partial, but statistically significant, increase of PEA concentrations"},
      {"measurement": "IC50", "setting": "liver FAAH", "value": "~3", "unit": "nM"}
    ]}
  ]
}
